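Cultured in 96-well plates, cells were exposed to test compound for 48 hours across five concentrations. Abbreviation: GI50, concentration required for 50% inhibition of growth. Definition used: TGI = concentration required for complete inhibition of growth.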
Columns and labels:
Assay in all cases: NCI-60 cell line screen, 48 h
COLO 205 colon = tested on: COLO 205 colon
HOP-62 NSCLC = tested on: HOP-62 NSCLC
DU-145 prostate = tested on: DU-145 prostate
HCT-15 colon = tested on: HCT-15 colon
TK-10 renal = tested on: TK-10 renal
CAKI-1 renal = tested on: CAKI-1 renal
OVCAR-3 ovarian = tested on: OVCAR-3 ovarian
U251 CNS = tested on: U251 CNS
KM12 colon = tested on: KM12 colon
SK-OV-3 ovarian = tested on: SK-OV-3 ovarian
NCI-H460 lung = tested on: NCI-H460 lung
HOP-92 NSCLC = tested on: HOP-92 NSCLC
MDA-MB-231 breast = tested on: MDA-MB-231 breast
OVCAR-8 ovarian = tested on: OVCAR-8 ovarian
SNB-19 CNS = tested on: SNB-19 CNS
SF-295 CNS = tested on: SF-295 CNS
BT-549 breast = tested on: BT-549 breast
PC-3 prostate = tested on: PC-3 prostate
M14 melanoma = tested on: M14 melanoma
HL-60(TB) leukemia = tested on: HL-60(TB) leukemia
SK-MEL-5 melanoma = tested on: SK-MEL-5 melanoma
T-47D breast = tested on: T-47D breast
HS 578T breast = tested on: HS 578T breast
LOX IMVI melanoma = tested on: LOX IMVI melanoma
OVCAR-5 ovarian = tested on: OVCAR-5 ovarian
MCF7 breast = tested on: MCF7 breast
NCI-H23 lung = tested on: NCI-H23 lung
A549 NSCLC = tested on: A549 NSCLC
786-0 renal = tested on: 786-0 renal
MDA-MB-435 = tested on: MDA-MB-435
SF-539 CNS = tested on: SF-539 CNS
SF-268 CNS = tested on: SF-268 CNS
ACHN renal = tested on: ACHN renal
HCT-116 colon = tested on: HCT-116 colon
UO-31 renal = tested on: UO-31 renal
RPMI-8226 leukemia = tested on: RPMI-8226 leukemia
EKVX NSCLC = tested on: EKVX NSCLC
SN12C renal = tested on: SN12C renal
UACC-62 melanoma = tested on: UACC-62 melanoma
UACC-257 melanoma = tested on: UACC-257 melanoma
K-562 leukemia = tested on: K-562 leukemia
NCI/ADR-RES ovarian = tested on: NCI/ADR-RES ovarian
SW-620 colon = tested on: SW-620 colon

For `CCSc1nc2[nH]c(=S)[nH]c(=S)c2c(-c2ccc(OC)c(OC)c2)c1C#N`, the GI50 (COLO 205 colon) was 14.2 µM, the TGI (COLO 205 colon) was 45.2 µM and the GI50 (HOP-62 NSCLC) was 19.8 µM. The TGI (HOP-62 NSCLC) was greater than 50 µM, the GI50 (DU-145 prostate) was 21.8 µM and the TGI (DU-145 prostate) was greater than 50 µM. The GI50 (HCT-15 colon) was 16.5 µM, the TGI (HCT-15 colon) was greater than 50 µM and the GI50 (TK-10 renal) was 43.5 µM. For the same compound, the TGI (TK-10 renal) was greater than 50 µM, the GI50 (CAKI-1 renal) was 17.4 µM and the TGI (CAKI-1 renal) was greater than 50 µM. The GI50 (OVCAR-3 ovarian) was 11 µM, the TGI (OVCAR-3 ovarian) was 34.6 µM and the GI50 (U251 CNS) was 17.8 µM. For the same compound, the TGI (U251 CNS) was greater than 50 µM, the GI50 (KM12 colon) was 21.9 µM and the TGI (KM12 colon) was greater than 50 µM. It also gave a GI50 (SK-OV-3 ovarian) of 21.1 µM, a TGI (SK-OV-3 ovarian) greater than 50 µM and a GI50 (NCI-H460 lung) of 21 µM. The TGI (NCI-H460 lung) was greater than 50 µM, the GI50 (HOP-92 NSCLC) was 19 µM and the TGI (HOP-92 NSCLC) was greater than 50 µM. For the same compound, the GI50 (MDA-MB-231 breast) was 9.75 µM, the TGI (MDA-MB-231 breast) was 40.3 µM and the GI50 (OVCAR-8 ovarian) was 18.9 µM. For the same compound, the TGI (OVCAR-8 ovarian) was greater than 50 µM, the GI50 (SNB-19 CNS) was 21.4 µM and the TGI (SNB-19 CNS) was greater than 50 µM. For the same compound, the GI50 (SF-295 CNS) was 18.9 µM, the TGI (SF-295 CNS) was greater than 50 µM and the GI50 (BT-549 breast) was 14.6 µM. For the same compound, the TGI (BT-549 breast) was 46.8 µM, the GI50 (PC-3 prostate) was 22.6 µM and the TGI (PC-3 prostate) was greater than 50 µM. It also gave a GI50 (M14 melanoma) of 15.2 µM, a TGI (M14 melanoma) greater than 50 µM and a GI50 (HL-60(TB) leukemia) of 16.1 µM. The TGI (HL-60(TB) leukemia) was greater than 50 µM, the GI50 (SK-MEL-5 melanoma) was 6.86 µM and the TGI (SK-MEL-5 melanoma) was 21.5 µM. The GI50 (T-47D breast) was 23.5 µM, the TGI (T-47D breast) was greater than 50 µM and the GI50 (HS 578T breast) was 13.2 µM. It also gave a TGI (HS 578T breast) of 45.8 µM, a GI50 (LOX IMVI melanoma) of 14.5 µM and a TGI (LOX IMVI melanoma) greater than 50 µM. It also gave a GI50 (OVCAR-5 ovarian) greater than 50 µM, a TGI (OVCAR-5 ovarian) greater than 50 µM and a GI50 (MCF7 breast) of 22.1 µM. For the same compound, the TGI (MCF7 breast) was greater than 50 µM, the GI50 (NCI-H23 lung) was 18.6 µM and the TGI (NCI-H23 lung) was greater than 50 µM. The GI50 (A549 NSCLC) was 14.8 µM, the TGI (A549 NSCLC) was greater than 50 µM and the GI50 (786-0 renal) was 16.5 µM. It also gave a TGI (786-0 renal) greater than 50 µM, a GI50 (MDA-MB-435) of 10.5 µM and a TGI (MDA-MB-435) of 42.5 µM. The GI50 (SF-539 CNS) was 14.8 µM, the TGI (SF-539 CNS) was 35.4 µM and the GI50 (SF-268 CNS) was 15.9 µM. The TGI (SF-268 CNS) was 46.4 µM, the GI50 (ACHN renal) was 17.2 µM and the TGI (ACHN renal) was greater than 50 µM. The GI50 (HCT-116 colon) was 18.2 µM, the TGI (HCT-116 colon) was greater than 50 µM and the GI50 (UO-31 renal) was 11.7 µM. It also gave a TGI (UO-31 renal) of 36 µM, a GI50 (RPMI-8226 leukemia) of 16.8 µM and a TGI (RPMI-8226 leukemia) greater than 50 µM. For the same compound, the GI50 (EKVX NSCLC) was 17 µM, the TGI (EKVX NSCLC) was greater than 50 µM and the GI50 (SN12C renal) was 16.9 µM. For the same compound, the TGI (SN12C renal) was greater than 50 µM, the GI50 (UACC-62 melanoma) was 14.3 µM and the TGI (UACC-62 melanoma) was greater than 50 µM. The GI50 (UACC-257 melanoma) was 16.5 µM, the TGI (UACC-257 melanoma) was 43.7 µM and the GI50 (K-562 leukemia) was 9.68 µM. It also gave a TGI (K-562 leukemia) of 24.3 µM, a GI50 (NCI/ADR-RES ovarian) of 14.7 µM and a TGI (NCI/ADR-RES ovarian) of 32.8 µM. The GI50 (SW-620 colon) was 26.5 µM and the TGI (SW-620 colon) was greater than 50 µM.

— PubChem BioAssay (NCI)
